The target in test [1] is T1, Inhibitor of nuclear factor kappa-B kinase subunit beta (Homo sapiens, UniProt O14920).
T1 sequence (O14920 whole entry): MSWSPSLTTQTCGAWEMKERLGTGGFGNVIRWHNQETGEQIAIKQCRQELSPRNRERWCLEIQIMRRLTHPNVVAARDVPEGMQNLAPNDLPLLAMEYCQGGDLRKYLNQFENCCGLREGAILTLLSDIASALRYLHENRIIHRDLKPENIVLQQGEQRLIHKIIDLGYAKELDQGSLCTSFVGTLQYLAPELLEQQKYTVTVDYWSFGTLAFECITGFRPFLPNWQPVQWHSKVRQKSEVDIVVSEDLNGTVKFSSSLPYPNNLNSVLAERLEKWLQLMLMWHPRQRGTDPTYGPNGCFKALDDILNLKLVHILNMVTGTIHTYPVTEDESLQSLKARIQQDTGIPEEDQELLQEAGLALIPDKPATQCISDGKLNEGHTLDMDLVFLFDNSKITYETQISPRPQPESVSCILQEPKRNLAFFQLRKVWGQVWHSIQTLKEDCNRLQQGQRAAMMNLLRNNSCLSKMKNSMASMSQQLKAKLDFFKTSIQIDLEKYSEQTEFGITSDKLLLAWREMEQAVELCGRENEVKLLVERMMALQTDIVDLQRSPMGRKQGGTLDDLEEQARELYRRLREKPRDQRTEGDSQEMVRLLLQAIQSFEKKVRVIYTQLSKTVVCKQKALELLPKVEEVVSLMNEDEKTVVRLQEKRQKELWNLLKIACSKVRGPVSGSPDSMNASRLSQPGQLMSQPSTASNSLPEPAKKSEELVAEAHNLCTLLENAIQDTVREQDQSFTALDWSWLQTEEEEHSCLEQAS
Description: Inhibition of human recombinant GST-IKKbeta by TR-FRET assay

Test [2] concerns the target T2, Inhibitor of nuclear factor kappa-B kinase subunit epsilon (Homo sapiens, UniProt Q14164).
T2 sequence (Q14164 whole entry): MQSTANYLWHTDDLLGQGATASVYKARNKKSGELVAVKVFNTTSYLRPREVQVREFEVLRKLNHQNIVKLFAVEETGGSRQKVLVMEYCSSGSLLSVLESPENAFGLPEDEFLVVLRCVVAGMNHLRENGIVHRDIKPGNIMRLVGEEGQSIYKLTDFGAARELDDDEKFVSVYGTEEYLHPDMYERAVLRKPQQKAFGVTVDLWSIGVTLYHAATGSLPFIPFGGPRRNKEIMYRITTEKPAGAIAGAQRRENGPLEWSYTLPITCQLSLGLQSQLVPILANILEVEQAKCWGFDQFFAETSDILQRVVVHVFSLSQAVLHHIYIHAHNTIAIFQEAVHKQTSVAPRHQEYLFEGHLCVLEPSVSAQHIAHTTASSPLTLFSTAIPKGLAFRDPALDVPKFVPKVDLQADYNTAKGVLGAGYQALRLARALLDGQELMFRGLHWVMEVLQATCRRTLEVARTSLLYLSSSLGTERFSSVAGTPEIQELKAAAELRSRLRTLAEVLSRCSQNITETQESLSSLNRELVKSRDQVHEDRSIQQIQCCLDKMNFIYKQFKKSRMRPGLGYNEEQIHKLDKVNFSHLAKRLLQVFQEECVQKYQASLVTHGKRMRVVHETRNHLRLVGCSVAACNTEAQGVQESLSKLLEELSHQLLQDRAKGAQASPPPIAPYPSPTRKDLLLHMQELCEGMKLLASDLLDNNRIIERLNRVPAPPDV
Description: Inhibition of human recombinant FLAG-IKKepsilon by TR-FRET assay

The test system of a further test is Fibroblast. Description: Inhibition of NF-kappaB translocation in TNF-alpha-induced human lung fibroblast cells. In kind it is functional, cell-based.
The subject of the next test is PBMC. As to the kind of experiment: Inhibition of LPS-stimulated TNFalpha release in PBMC. As to conditions: Homo sapiens. Type of test: functional, cell-based.
Test [3] is described as follows: Inhibition of LPS-stimulated IL6 release in PBMC. Type of test: functional. The following applies: Homo sapiens.

Structures are written as SMILES. Active and inactive are the calls of the source. No cut-off for these calls is given here.

Consider `COc1c(C(N)=O)cc(-c2ccc(Cl)cc2)cc1-c1ccc(S(N)(=O)=O)cc1` [GSK-711701A], for which the IC50 (usually the concentration at which inhibition is half-maximal) in test [1] is over 15.8 µM.
In the case of `CNS(=O)(=O)c1ccc(-c2cc(-c3ccccc3)cc(C(N)=O)c2O)cc1`, the half-maximal inhibitory concentration (IC50) in test [1] is 1 µM; in test [2] it was over 15.8 µM.
In the case of `NC(=O)c1cc(-c2ccc(F)cc2)cc(-c2ccncc2)c1N` [GSK-620503A], the IC50 in test [1] is 1.58 µM; in test [2], over 15.8 µM.
With `CS(=O)(=O)Nc1cccc(-c2cc(-c3ccccc3)cc(C(N)=O)c2N)c1`, the IC50 in test [1] was 7.94 µM.
Consider `COCCCNNS(=O)(=O)c1ccc(-c2cc(-c3ccccc3)cc(C(N)=O)c2N)cc1`, for which the IC50 in test [1] is 0.251 µM; in test [2], over 15.8 µM.
For the compound `NC(=O)c1cc(-c2ccc(Cl)cc2)cc(-c2ccc(S(N)(=O)=O)cc2)c1N`, the outcome with Fibroblast was Active. In addition, the half-maximal inhibitory concentration (IC50) with PBMC is 0.794 µM; in test [3], 2 µM; in test [1], 0.1 µM; in test [2], over 15.8 µM.
Regarding `COc1ccc(-c2ccncc2)cc1C(N)=O` [GSK-605714A], in test [1], the 50% inhibitory concentration (IC50) is over 15.8 µM.
Turning to `NCCNNS(=O)(=O)c1ccc(-c2cc(-c3ccccc3)cc(C(N)=O)c2N)cc1`, the results for the concentration for half-maximal inhibition (IC50) in test [1] and in test [2] were 0.158 µM and over 15.8 µM, respectively.
On the same counts, the results for `NC(=O)c1cc(-c2ccccc2)cc(-c2ccc(S(=O)(=O)NNCCCN3CCOCC3)cc2)c1N` are 0.316 µM and over 15.8 µM.
On the same counts, the results for `NC(=O)c1cc(-c2ccccc2)cc(-c2ccc(S(=O)(=O)NNCCN3CCCC3)cc2)c1N` are 0.251 µM and over 15.8 µM.
On the same counts, the results for `CS(=O)(=O)Nc1ccc(-c2cc(-c3ccc(Cl)cc3)cc(C(N)=O)c2N)cc1` are 1.58 µM and over 15.8 µM.
On to `NC(=O)c1cc(-c2ccncc2)cc(-c2ccccc2)c1N` [GSK-625137A], for which the IC50 in test [1] and in test [2] was 3.98 µM in each case.
The compound `CNC(=O)c1cc(-c2ccc(F)cc2)cc(-c2ccc(S(C)(=O)=O)cc2)c1N` returned a half-inhibitory concentration (IC50) in test [1] of over 15.8 µM.
Turning to `NC(=O)c1cc(-c2ccccc2)cc(-c2ccc(S(=O)(=O)NNC3CC3)cc2)c1N`, the IC50 was 0.316 µM in test [1] and over 15.8 µM in test [2].
On the same counts, the results for `CN(C)c1cccc(-c2cc(-c3ccccc3)cc(C(N)=O)c2N)c1` are over 15.8 µM and over 15.8 µM.
For `NC(=O)c1cc(-c2ccc(F)cc2)cc(-c2ccc(S(N)(=O)=O)cc2)c1N`, in that order: 0.2 µM and over 15.8 µM.
`COc1c(C(N)=O)cc(-c2ccccc2)cc1-c1ccncc1`: the IC50 in test [1] was over 15.8 µM.
In the case of `NC(=O)c1cc(-c2ccncc2)cc(-c2ccc(S(N)(=O)=O)cc2)c1N`, the concentration for half-maximal inhibition (IC50) is 0.251 µM in test [1] and 1.58 µM in test [2].
In test [1], `COc1cc2ncn(-c3cc(OCc4ccccc4S(C)(=O)=O)c(C#N)s3)c2cc1OC` [GSK-319347A] had an IC50 of over 15.8 µM.
Consider `NC(=O)c1cc(-c2ccccc2)cc(-c2cccc(S(N)(=O)=O)c2)c1N`, for which the concentration for half-maximal inhibition (IC50) in test [1] was 7.94 µM; in test [2], over 15.8 µM.
On the same counts, the results for `CN(C)S(=O)(=O)c1ccc(-c2cc(-c3ccncc3)cc(C(N)=O)c2O)cc1` are 7.94 µM and over 15.8 µM.
For `CNC(=O)c1cc(-c2ccc(F)cc2)cc(-c2ccc(S(=O)(=O)N3CCCC3)cc2)c1N` [GSK-635416A], in test [1], the IC50 was over 15.8 µM.
Take `NC(=O)c1cc(-c2ccccc2)ccc1N`: the IC50 was 15.8 µM in test [1] and over 15.8 µM in test [2].
For `CN(C)CCCNNS(=O)(=O)c1ccc(-c2cc(-c3ccccc3)cc(C(N)=O)c2N)cc1`, in that order: 0.316 µM and over 15.8 µM.
On the same counts, the results for `CS(=O)(=O)Nc1ccc(-c2cc(-c3ccccc3)cc(C(N)=O)c2N)cc1` [GSK-586581A] are 1.58 µM and over 15.8 µM.
In test [1], `CS(=O)(=O)c1ccc(-c2cc(C(N)=O)c(N)c(-c3ccc(S(N)(=O)=O)cc3)c2)cc1` showed an IC50 of 0.158 µM. That is a sub-micromolar value.
As to `NC(=O)c1cc(-c2ccc(Cl)cc2)cc(-c2ccc(S(N)(=O)=O)cc2)c1O`, the half-inhibitory concentration (IC50) is 1.58 µM in test [1] and over 15.8 µM in test [2].
On the same counts, the results for `NC(=O)c1cc(-c2ccc(F)cc2)cc(-c2ccc(S(=O)(=O)N3CCCC3)cc2)c1N` are 0.631 µM and over 15.8 µM.
For the compound `CS(=O)(=O)c1ccc(-c2cc(C(N)=O)c(N)c(-c3ccc(S(=O)(=O)N4CCCC4)cc3)c2)cc1`, the IC50 in test [1] is 0.398 µM. In other words, the sub-micromolar range.
For the compound `NC(=O)c1cc(-c2ccccc2)cc(-c2ccc(CS(N)(=O)=O)cc2)c1N`, the 50% inhibitory concentration (IC50) in test [1] is 3.98 µM; in test [2], over 15.8 µM.
In turn, `COc1c(C(N)=O)cc(-c2ccncc2)cc1-c1ccccc1` displayed a concentration for half-maximal inhibition (IC50) in test [1] of over 15.8 µM.
Take `NC(=O)c1cc(-c2ccccc2)cc(-c2ccc(S(N)(=O)=O)cc2)c1N`: the half-inhibitory concentration (IC50) in test [1] is 0.251 µM; in test [2], over 15.8 µM.
On the same counts, the results for `NC(=O)c1cc(-c2ccc(F)cc2)ccc1N` are over 15.8 µM and over 15.8 µM.
